Assay results reported in patent US5230998A, “Method for the prescreening of drugs targeted to the V3 hypervariable loop of the HIV-1 envelope glycoprotein gp 120” (priority 1991, dated 1993).

What was measured:
[1] = biological target: gp120 of the same virus subtype expressed in E. coli (HIV-1 M:B_ARV2/SF2, UniProt P03378); test: Interaction of ATA with gp120 (non-glycosylated); assay type: binding, HIV-1 SF2; conditions: data not shown
[2] = biological target: recombinant gp120 and recombinant CD4 (UniProt P01730+P03375); test: Inhibition of the reaction between recombinant gp120 and recombinant CD4; assay type: binding; conditions: complete inhibition only at high concentrations; read-out: concentration for complete inhibition of the gp120-CD4 reaction
Procedure: However, ATA is an inefficient inhibitor of the reaction between recombinant gp120 and recombinant CD4, and complete inhibition of this reaction can be observed only at high concentrations of ATA (≈1 mg/ml).

Chain of gp120 of the same virus subtype expressed in E. coli (P03378 32-509): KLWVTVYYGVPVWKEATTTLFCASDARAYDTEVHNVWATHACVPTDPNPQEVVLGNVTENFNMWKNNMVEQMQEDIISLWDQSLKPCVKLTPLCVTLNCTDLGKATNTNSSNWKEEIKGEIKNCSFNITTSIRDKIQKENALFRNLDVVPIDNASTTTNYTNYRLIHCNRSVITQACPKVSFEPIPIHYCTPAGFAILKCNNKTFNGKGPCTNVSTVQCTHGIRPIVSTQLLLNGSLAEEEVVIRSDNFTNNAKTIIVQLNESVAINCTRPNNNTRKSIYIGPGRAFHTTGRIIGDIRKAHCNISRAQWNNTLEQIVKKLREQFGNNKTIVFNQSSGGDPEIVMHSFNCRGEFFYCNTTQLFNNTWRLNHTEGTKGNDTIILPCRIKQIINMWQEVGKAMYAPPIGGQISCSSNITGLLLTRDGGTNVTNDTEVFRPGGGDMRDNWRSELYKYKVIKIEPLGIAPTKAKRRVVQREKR

With O=C(O)C1=CC(=C(c2ccc(O)c(C(=O)O)c2)c2ccc(O)c(C(=O)O)c2)C=CC1=O [substance #122, aurintricarboxylic acid] the “interaction of ATA with gp120” value [1] was “not with gp120 of the same virus subtype expressed in E. coli” and the IC100 [2] was roughly 1000 µg/mL.
